Experiments:
Assay in all cases: Test G preemergence/postemergence greenhouse plant response rating 0 to 100
[1] = system: large crabgrass; assay type: in vivo, Digitaria sanguinalis; settings: 0 to 100 scale
Outline: (§1)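 Greenhouse pots, one species each; non-phytotoxic solvent vehicle. Read-out: visual injury vs untreated, 13–21 DAT. Dash denotes no result.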

[2] = system: common purslane; assay type: in vivo, Portulaca oleracea; settings: 0 to 100 scale
Outline: as §1

[3] = system: guineagrass; assay type: in vivo, Panicum maximum; settings: 0 to 100 scale
Outline: as §1

[4] = system: goosegrass; assay type: in vivo, Eleusine indica; settings: 0 to 100 scale
Outline: as §1

[5] = system: smooth crabgrass; assay type: in vivo, Digitaria ischaemum; settings: 0 to 100 scale
Outline: as §1

[6] = system: common ragweed; assay type: in vivo, Ambrosia elatior; settings: 0 to 100 scale
Outline: as §1

[7] = system: bermudagrass; assay type: in vivo, Cynodon dactylon; settings: 0 to 100 scale
Outline: as §1

[8] = system: johnsongrass; assay type: in vivo, Sorghum halepense; settings: 0 to 100 scale
Outline: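 Pre- and postemergence treatments used compound in non-phytotoxic solvent on potted greenhouse plants grown from seed, rhizome or plant part. Postemergence plants were at the 2–4 leaf stage; damage was assessed by eye versus untreated pots after 13–21 days.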

[9] = system: broadleaf signalgrass; assay type: in vivo, Brachiaria plantaginea; settings: 0 to 100 scale
Outline: as §1

[10] = system: purple nutsedge; assay type: in vivo, Cyperus rotundus; settings: Rate 125 g/ha, 0 to 100 scale
Outline: as §1

[11] = system: yellow nutsedge; assay type: in vivo, Cyperus esculentus; settings: Rate 125 g/ha, 0 to 100 scale
Outline: as §1

[12] = system: itchgrass; assay type: in vivo, Rottboellia exaltata; settings: 0 to 100 scale
Outline: as §1

[13] = system: pitted morningglory; assay type: in vivo, Ipomoea lacunosa; settings: 0 to 100 scale
Outline: as §1

[14] = system: dallisgrass; assay type: in vivo, Paspalum dilatatum; settings: 0 to 100 scale
Outline: as §1

[15] = system: alfalfa; assay type: in vivo, Medicago ativa; settings: 0 to 100 scale
Outline: as §1

[16] = system: annual bluegrass; assay type: in vivo, Poa annua; settings: 0 to 100 scale
Outline: as §1

[17] = system: peanut; assay type: in vivo, Arachis hypoagaea; settings: 0 to 100 scale
Outline: as §1

CC(C)N1C(=O)COc2cc(F)c(-c3nn4c(c3Cl)CCCC4)cc21 [Compound 31]
Plant response rating, Large Crabgrass ([1]; POSTEMERGENCE, Rate 125 g/ha): 0
Plant response rating, Large Crabgrass ([1]; POSTEMERGENCE, Rate 250 g/ha): 0
Plant response rating, Large Crabgrass ([1]; PREEMERGENCE, Rate 125 g/ha): 0
Plant response rating, Large Crabgrass ([1]; PREEMERGENCE, Rate 250 g/ha): 0
Plant response rating, Cmn Purslane ([2]; POSTEMERGENCE, Rate 125 g/ha): 100
Plant response rating, Cmn Purslane ([2]; POSTEMERGENCE, Rate 250 g/ha): 80
Plant response rating, Cmn Purslane ([2]; PREEMERGENCE, Rate 125 g/ha): 0
Plant response rating, Cmn Purslane ([2]; PREEMERGENCE, Rate 250 g/ha): 100
Plant response rating, Guineagrass ([3]; POSTEMERGENCE, Rate 125 g/ha): 0
Plant response rating, Guineagrass ([3]; POSTEMERGENCE, Rate 250 g/ha): 0
Plant response rating, Guineagrass ([3]; PREEMERGENCE, Rate 125 g/ha): 0
Plant response rating, Guineagrass ([3]; PREEMERGENCE, Rate 250 g/ha): 100
Plant response rating, Goosegrass ([4]; POSTEMERGENCE, Rate 125 g/ha): 0
Plant response rating, Goosegrass ([4]; POSTEMERGENCE, Rate 250 g/ha): 0
Plant response rating, Goosegrass ([4]; PREEMERGENCE, Rate 125 g/ha): 0
Plant response rating, Goosegrass ([4]; PREEMERGENCE, Rate 250 g/ha): 0
Plant response rating, Smooth Crabgras ([5]; POSTEMERGENCE, Rate 125 g/ha): 0
Plant response rating, Smooth Crabgras ([5]; POSTEMERGENCE, Rate 250 g/ha): 0
Plant response rating, Smooth Crabgras ([5]; PREEMERGENCE, Rate 125 g/ha): 0
Plant response rating, Smooth Crabgras ([5]; PREEMERGENCE, Rate 250 g/ha): 0
Plant response rating, Cmn Ragweed ([6]; POSTEMERGENCE, Rate 125 g/ha): 100
Plant response rating, Cmn Ragweed ([6]; POSTEMERGENCE, Rate 250 g/ha): 100
Plant response rating, Cmn Ragweed ([6]; PREEMERGENCE, Rate 125 g/ha): 0
Plant response rating, Cmn Ragweed ([6]; PREEMERGENCE, Rate 250 g/ha): 70
Plant response rating, Bermudagrass ([7]; POSTEMERGENCE, Rate 125 g/ha): 0
Plant response rating, Bermudagrass ([7]; POSTEMERGENCE, Rate 250 g/ha): 0
Plant response rating, Bermudagrass ([7]; PREEMERGENCE, Rate 125 g/ha): 0
Plant response rating, Bermudagrass ([7]; PREEMERGENCE, Rate 250 g/ha): 0
Plant response rating, Johnsongrass ([8]; POSTEMERGENCE, Rate 125 g/ha): 0
Plant response rating, Johnsongrass ([8]; POSTEMERGENCE, Rate 250 g/ha): 0
Plant response rating, Johnsongrass ([8]; PREEMERGENCE, Rate 125 g/ha): 0
Plant response rating, Johnsongrass ([8]; PREEMERGENCE, Rate 250 g/ha): 0
Plant response rating, Brdlf Sgnlgrass ([9]; POSTEMERGENCE, Rate 125 g/ha): 0
Plant response rating, Brdlf Sgnlgrass ([9]; POSTEMERGENCE, Rate 250 g/ha): 0
Plant response rating, Brdlf Sgnlgrass ([9]; PREEMERGENCE, Rate 125 g/ha): 0
Plant response rating, Brdlf Sgnlgrass ([9]; PREEMERGENCE, Rate 250 g/ha): 0
Plant response rating, Purple Nutsedge ([10]; POSTEMERGENCE): 10
Plant response rating, Purple Nutsedge ([10]; PREEMERGENCE): 0
Plant response rating, Yellow Nutsedge ([11]; POSTEMERGENCE): 0
Plant response rating, Yellow Nutsedge ([11]; PREEMERGENCE): 0
Plant response rating, Itchgrass ([12]; POSTEMERGENCE, Rate 125 g/ha): 0
Plant response rating, Itchgrass ([12]; POSTEMERGENCE, Rate 250 g/ha): 20
Plant response rating, Itchgrass ([12]; PREEMERGENCE, Rate 125 g/ha): 0
Plant response rating, Itchgrass ([12]; PREEMERGENCE, Rate 250 g/ha): 70
Plant response rating, Pit Morninglory ([13]; POSTEMERGENCE, Rate 125 g/ha): 50
Plant response rating, Pit Morninglory ([13]; POSTEMERGENCE, Rate 250 g/ha): 50
Plant response rating, Pit Morninglory ([13]; PREEMERGENCE, Rate 125 g/ha): 0
Plant response rating, Pit Morninglory ([13]; PREEMERGENCE, Rate 250 g/ha): 0
Plant response rating, Dallisgrass ([14]; POSTEMERGENCE, Rate 125 g/ha): 0
Plant response rating, Dallisgrass ([14]; POSTEMERGENCE, Rate 250 g/ha): 0
Plant response rating, Dallisgrass ([14]; PREEMERGENCE, Rate 125 g/ha): 0
Plant response rating, Dallisgrass ([14]; PREEMERGENCE, Rate 250 g/ha): 0
Plant response rating, Alfalfa Var. ([15]; POSTEMERGENCE, Rate 125 g/ha): 0
Plant response rating, Alfalfa Var. ([15]; POSTEMERGENCE, Rate 250 g/ha): 10
Plant response rating, Alfalfa Var. ([15]; PREEMERGENCE, Rate 125 g/ha): 0
Plant response rating, Alfalfa Var. ([15]; PREEMERGENCE, Rate 250 g/ha): 30
Plant response rating, Ann Bluegrass ([16]; POSTEMERGENCE, Rate 125 g/ha): 0
Plant response rating, Ann Bluegrass ([16]; POSTEMERGENCE, Rate 250 g/ha): 0
Plant response rating, Ann Bluegrass ([16]; PREEMERGENCE, Rate 125 g/ha): 0
Plant response rating, Ann Bluegrass ([16]; PREEMERGENCE, Rate 250 g/ha): 0
Plant response rating, Peanuts ([17]; POSTEMERGENCE, Rate 125 g/ha): 0
Plant response rating, Peanuts ([17]; POSTEMERGENCE, Rate 250 g/ha): 0
Plant response rating, Peanuts ([17]; PREEMERGENCE, Rate 125 g/ha): 0
Plant response rating, Peanuts ([17]; PREEMERGENCE, Rate 250 g/ha): 0
